Targets include GSK3B (GSK3 beta) (Homo sapiens, UniProt P49841); PKN1 (PRK1) (Homo sapiens, UniProt Q16512); MKNK1 (MNK1) (Homo sapiens, UniProt Q9BUB5); PRKCQ (PKC theta) (Homo sapiens, UniProt Q04759); CAMK1D (CaMKI delta) (Homo sapiens, UniProt Q8IU85); LCK (Homo sapiens, UniProt P06239); PTK2 (FAK) (Homo sapiens, UniProt Q05397).
Test in all cases: SelectScreen Z'LYTE kinase profiling
What all share (assay type): biochemical
Conditions in all cases: ATP at apparent KM

In a further assay the target is T1, SGKL (SGK3) (Homo sapiens, UniProt Q96BR1).
T1 sequence (Q96BR1 1-496): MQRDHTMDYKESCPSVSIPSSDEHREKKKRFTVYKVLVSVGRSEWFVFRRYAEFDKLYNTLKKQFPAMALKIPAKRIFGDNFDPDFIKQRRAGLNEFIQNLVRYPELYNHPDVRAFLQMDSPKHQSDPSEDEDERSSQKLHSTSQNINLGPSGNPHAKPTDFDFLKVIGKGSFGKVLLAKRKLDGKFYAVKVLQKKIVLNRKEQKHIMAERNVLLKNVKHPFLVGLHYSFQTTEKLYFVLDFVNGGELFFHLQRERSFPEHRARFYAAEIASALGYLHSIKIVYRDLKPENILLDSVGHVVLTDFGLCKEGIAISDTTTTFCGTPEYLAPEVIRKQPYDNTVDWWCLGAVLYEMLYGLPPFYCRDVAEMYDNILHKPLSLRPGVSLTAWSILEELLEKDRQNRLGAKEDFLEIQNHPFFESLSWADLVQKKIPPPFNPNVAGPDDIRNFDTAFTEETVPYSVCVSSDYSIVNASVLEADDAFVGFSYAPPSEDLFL

For a further assay, the target named is T2, AURKA (Aurora A) (Homo sapiens, UniProt O14965).
T2 sequence (O14965 1-403): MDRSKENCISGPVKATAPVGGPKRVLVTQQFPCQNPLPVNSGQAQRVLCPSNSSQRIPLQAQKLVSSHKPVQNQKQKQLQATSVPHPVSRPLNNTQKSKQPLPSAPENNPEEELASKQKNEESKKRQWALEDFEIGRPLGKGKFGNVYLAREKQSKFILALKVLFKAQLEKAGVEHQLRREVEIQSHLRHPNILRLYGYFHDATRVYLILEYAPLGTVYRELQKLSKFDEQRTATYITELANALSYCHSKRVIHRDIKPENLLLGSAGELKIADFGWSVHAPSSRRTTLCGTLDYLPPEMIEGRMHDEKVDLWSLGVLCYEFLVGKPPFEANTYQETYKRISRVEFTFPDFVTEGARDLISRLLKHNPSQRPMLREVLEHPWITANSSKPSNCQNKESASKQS

The target in the next assay is T3, PRKD2 (PKD2) (Homo sapiens, UniProt Q9BZL6).
T3 sequence (Q9BZL6 1-878): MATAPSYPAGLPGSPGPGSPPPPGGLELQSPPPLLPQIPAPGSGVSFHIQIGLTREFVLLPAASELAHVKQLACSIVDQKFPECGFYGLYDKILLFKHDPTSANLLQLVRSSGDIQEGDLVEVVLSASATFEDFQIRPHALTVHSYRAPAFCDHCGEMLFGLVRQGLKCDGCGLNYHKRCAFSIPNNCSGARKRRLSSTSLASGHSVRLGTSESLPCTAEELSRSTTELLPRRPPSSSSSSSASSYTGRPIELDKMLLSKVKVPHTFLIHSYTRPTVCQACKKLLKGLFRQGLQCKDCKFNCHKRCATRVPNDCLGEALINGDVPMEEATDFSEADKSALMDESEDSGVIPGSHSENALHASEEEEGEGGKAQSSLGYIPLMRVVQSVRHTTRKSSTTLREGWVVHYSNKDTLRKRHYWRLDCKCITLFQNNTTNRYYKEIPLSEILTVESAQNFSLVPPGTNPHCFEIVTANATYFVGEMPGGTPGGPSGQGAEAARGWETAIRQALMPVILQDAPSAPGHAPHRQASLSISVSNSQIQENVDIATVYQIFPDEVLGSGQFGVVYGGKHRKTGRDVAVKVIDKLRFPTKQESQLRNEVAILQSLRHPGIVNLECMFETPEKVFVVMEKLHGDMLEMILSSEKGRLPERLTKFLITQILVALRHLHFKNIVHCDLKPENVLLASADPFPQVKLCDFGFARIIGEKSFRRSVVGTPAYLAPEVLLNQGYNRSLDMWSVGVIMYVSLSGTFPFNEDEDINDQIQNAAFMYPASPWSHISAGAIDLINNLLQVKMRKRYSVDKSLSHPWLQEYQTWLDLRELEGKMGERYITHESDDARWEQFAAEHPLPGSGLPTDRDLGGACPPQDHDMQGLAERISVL

PTK2 (FAK), sequence (Q05397 whole entry): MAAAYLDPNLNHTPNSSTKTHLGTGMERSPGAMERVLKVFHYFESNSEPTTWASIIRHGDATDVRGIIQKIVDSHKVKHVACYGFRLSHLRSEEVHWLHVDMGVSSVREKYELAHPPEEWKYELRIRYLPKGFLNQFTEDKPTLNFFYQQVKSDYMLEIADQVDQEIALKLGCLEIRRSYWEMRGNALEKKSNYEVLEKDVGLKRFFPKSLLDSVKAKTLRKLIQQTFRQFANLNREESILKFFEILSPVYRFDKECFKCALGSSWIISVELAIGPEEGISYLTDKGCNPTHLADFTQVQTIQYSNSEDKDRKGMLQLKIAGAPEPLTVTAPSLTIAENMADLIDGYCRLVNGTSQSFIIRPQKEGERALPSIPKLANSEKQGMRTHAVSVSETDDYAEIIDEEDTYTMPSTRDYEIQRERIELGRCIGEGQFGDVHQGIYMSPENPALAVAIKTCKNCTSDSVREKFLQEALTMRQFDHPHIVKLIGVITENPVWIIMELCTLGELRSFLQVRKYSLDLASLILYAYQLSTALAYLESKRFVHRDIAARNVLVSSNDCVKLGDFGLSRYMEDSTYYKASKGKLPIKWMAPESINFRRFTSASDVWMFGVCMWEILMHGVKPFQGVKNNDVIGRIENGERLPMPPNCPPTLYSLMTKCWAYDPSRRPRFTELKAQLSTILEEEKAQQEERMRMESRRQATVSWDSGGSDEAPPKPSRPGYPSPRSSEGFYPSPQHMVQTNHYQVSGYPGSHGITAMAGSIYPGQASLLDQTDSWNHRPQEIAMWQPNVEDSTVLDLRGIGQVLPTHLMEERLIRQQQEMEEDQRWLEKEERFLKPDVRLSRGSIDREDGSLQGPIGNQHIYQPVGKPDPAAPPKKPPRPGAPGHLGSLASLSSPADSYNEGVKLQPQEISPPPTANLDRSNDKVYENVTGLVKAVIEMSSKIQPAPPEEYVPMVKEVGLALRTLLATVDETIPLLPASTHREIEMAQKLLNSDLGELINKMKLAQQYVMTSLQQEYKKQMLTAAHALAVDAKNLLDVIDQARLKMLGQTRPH
PRKCQ (PKC theta), sequence (Q04759 whole entry): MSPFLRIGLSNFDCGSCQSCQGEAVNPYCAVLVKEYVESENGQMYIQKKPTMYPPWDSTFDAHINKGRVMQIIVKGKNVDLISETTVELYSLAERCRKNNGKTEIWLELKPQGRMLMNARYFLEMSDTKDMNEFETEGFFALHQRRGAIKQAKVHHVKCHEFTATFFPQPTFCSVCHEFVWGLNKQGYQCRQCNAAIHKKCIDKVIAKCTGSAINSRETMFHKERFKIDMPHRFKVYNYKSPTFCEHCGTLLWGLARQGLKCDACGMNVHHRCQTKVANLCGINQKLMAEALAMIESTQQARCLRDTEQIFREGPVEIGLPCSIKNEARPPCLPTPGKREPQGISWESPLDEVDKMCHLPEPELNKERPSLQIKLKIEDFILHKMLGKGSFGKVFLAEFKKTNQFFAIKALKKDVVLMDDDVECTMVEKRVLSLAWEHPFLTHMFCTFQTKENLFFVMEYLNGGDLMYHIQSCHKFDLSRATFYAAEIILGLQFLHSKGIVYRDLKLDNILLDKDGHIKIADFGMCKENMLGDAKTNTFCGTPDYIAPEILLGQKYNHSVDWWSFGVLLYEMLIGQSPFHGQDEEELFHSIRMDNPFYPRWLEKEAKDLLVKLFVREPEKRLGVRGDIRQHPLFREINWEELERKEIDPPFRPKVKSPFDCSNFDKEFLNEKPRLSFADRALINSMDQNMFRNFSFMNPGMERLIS
LCK, sequence (P06239 whole entry): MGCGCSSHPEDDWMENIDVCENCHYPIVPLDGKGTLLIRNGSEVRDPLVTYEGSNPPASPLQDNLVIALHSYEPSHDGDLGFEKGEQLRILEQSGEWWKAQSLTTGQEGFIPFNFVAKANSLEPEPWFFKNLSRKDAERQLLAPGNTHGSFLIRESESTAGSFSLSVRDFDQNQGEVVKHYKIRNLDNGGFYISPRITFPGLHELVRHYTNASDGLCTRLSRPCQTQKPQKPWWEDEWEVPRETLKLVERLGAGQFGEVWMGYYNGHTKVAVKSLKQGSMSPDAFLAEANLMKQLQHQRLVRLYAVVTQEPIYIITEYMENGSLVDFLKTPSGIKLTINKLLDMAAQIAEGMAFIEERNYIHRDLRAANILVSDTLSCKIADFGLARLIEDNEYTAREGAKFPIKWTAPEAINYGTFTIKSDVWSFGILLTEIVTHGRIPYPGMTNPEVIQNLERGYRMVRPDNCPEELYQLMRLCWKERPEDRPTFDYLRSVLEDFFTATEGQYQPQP
PKN1 (PRK1), sequence (Q16512 whole entry): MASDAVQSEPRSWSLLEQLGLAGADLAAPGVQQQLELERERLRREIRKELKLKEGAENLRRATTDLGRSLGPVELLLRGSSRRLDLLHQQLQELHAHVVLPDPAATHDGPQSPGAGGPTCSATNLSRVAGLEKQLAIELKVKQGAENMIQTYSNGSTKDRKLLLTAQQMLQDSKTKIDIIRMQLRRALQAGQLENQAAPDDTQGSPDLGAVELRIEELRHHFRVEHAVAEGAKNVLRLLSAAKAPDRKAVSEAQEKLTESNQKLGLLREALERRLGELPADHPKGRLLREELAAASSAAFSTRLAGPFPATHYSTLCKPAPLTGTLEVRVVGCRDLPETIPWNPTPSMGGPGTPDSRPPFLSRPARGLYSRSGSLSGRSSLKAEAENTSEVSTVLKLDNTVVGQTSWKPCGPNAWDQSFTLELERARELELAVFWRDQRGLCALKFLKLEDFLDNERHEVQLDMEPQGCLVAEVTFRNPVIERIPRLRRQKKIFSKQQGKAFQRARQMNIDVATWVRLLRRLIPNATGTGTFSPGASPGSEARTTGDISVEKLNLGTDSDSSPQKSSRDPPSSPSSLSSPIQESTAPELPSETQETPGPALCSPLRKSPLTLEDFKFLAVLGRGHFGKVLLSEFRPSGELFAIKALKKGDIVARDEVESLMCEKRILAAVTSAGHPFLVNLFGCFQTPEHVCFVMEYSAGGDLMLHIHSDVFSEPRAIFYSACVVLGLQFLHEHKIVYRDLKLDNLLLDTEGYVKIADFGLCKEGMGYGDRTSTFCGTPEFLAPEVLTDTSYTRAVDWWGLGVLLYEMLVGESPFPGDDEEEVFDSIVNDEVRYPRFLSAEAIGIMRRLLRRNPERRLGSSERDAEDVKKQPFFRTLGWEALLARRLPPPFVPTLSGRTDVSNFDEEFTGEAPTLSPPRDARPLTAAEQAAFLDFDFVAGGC
MKNK1 (MNK1), sequence (Q9BUB5 whole entry): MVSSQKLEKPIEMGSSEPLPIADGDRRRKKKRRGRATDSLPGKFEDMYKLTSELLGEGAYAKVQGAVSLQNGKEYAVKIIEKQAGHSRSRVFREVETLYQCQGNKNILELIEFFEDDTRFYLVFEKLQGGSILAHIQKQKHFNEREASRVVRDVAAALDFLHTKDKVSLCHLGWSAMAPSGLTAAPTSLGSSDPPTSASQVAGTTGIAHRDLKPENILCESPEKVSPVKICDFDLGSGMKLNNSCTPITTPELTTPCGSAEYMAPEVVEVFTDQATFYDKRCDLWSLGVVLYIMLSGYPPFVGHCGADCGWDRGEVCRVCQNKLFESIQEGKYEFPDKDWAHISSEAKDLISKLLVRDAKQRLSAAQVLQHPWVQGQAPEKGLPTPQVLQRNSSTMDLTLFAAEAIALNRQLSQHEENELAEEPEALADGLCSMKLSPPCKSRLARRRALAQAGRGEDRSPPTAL
CAMK1D (CaMKI delta), sequence (Q8IU85 whole entry): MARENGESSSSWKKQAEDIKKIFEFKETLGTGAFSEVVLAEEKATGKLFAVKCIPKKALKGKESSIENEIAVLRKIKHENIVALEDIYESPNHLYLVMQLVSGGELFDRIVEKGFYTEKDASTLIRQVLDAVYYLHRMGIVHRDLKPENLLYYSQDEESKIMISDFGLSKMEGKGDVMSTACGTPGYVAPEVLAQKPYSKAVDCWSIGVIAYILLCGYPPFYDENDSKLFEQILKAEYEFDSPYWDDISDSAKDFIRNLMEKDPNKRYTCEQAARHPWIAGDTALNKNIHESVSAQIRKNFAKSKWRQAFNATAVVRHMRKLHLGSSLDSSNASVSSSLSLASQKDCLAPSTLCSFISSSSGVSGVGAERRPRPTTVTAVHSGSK
GSK3B (GSK3 beta), sequence (P49841 whole entry): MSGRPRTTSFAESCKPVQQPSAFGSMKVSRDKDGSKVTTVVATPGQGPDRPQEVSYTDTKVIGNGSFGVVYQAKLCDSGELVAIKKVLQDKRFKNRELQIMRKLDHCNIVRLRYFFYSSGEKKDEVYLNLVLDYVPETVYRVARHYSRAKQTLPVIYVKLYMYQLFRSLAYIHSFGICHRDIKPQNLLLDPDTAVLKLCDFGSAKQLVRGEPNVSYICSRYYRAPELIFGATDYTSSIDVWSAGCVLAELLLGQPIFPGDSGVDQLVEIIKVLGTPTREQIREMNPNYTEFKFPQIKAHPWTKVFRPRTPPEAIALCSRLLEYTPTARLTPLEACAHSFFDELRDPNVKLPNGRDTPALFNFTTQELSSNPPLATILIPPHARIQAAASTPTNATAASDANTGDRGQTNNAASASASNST
Description for AURKA (Aurora A): (§1) protein kinases at a compound concentration of 1 µM. Measurements were performed in duplicates
(§2) and at the particular apparent ATP KM of each individual kinase employing the activity based Z’LYTE®
(§3) kinase assay of the SelectScreen® Kinase Profiling Services (ThermoFisher Scientific).
(§4) kinases at a compound concentration of 1 µM. Measurements were performed in duplicates and at
(§5) the particular apparent ATP KM of each individual kinase employing the activity based Z’LYTE® kinase
(§6) assay of the SelectScreen® Kinase Profiling Services (ThermoFisher Scientific).
Description for CAMK1D (CaMKI delta): as §1, §2, §3, §4, §5, §6
Description for GSK3B (GSK3 beta): as §1, §2, §3, §4, §5, §6
Description for LCK: as §1, §2, §3, §4, §5, §6
Description for MKNK1 (MNK1): as §1, §2, §3, §4, §5, §6
Description for PKN1 (PRK1): as §1, §2, §3, §4, §5, §6
Description for PRKCQ (PKC theta): as §1, §2, §3, §4, §5, §6
Description for PRKD2 (PKD2): as §1, §2, §3, §4, §5, §6
Description for PTK2 (FAK): as §1, §2, §3, §4, §5, §6
Description for SGKL (SGK3): as §1, §2, §3, §4, §5, §6

Regarding `C=CC(=O)Nc1ccc2c(c1)n(C1CCN(Cc3ccc(-c4nc5cc[nH]c(=O)c5cc4-c4ccccc4)cc3)CC1)c(=O)n2C` [24b], the inhibition – broadly, the drop in the measured response relative to a control, in per cent – at 1 µM on SGKL (SGK3) was -5%; at GSK3B (GSK3 beta), 22%; on PKN1 (PRK1), -1%; on AURKA (Aurora A), 7%; on MKNK1 (MNK1) it was -22%; on PRKCQ (PKC theta), 7%. In addition, the inhibition at 1 µM was 9% on CAMK1D (CaMKI delta), -3% at LCK, 3% on PRKD2 (PKD2) and -20% at PTK2 (FAK).

`C=CC(=O)Nc1cccc(C(=O)NC2CCN(Cc3ccc(-c4nc5cc[nH]c(=O)c5cc4-c4ccccc4)cc3)CC2)c1` [30b]: the inhibition at 1 µM was -4% on SGKL (SGK3); 29% on GSK3B (GSK3 beta); 1% at PKN1 (PRK1); 22% at AURKA (Aurora A); 10% on MKNK1 (MNK1); 13% at PRKCQ (PKC theta). Also, the inhibition at 1 µM was 3% on CAMK1D (CaMKI delta), 8% on LCK, 4% on PRKD2 (PKD2) and -4% at PTK2 (FAK).

`C=CC(=O)Nc1cc(NC(=O)NC2CCN(Cc3ccc(-c4nc5cc[nH]c(=O)c5cc4-c4ccccc4)cc3)CC2)ccc1Cl` [compound 27]: the inhibition at 1 µM was -1% at SGKL (SGK3); 18% at GSK3B (GSK3 beta); 6% at PKN1 (PRK1); 10% at AURKA (Aurora A); 29% at MKNK1 (MNK1); 11% at PRKCQ (PKC theta). Further, the inhibition at 1 µM at CAMK1D (CaMKI delta) is 12%; at LCK it was 4%; on PRKD2 (PKD2), 5%; on PTK2 (FAK) it was -1%.
